Measurements reported in patent US20030110524A1, “TRANSGENIC ORGANISMS AND THEIR USES” (priority 1997, published 2003).

Columns and labels:
[1] = system: thyroid cells derived from CD2/neo^r transgenic rats; experiment: Survival of thyroid cells from CD2/neo^r transgenic rats with drugs; type: cell-based; settings: CD2/neo^r rat cells, drugs added at day 2, geneticin 400 μg/ml, ACG 10 μg/ml
Description: (§1) Thyroid cultures derived from the thyroid gland of adult CD2/neo^r, TG/TK/neo^r and control animals were produced by routine methods (Freshney, 1987). Twenty-four hours after plating, geneticin (400 μg/ml) was added to cultures originating from both types of transgenic and the control rats, and replaced every three days with fresh medium. When required, cells were subcultured (1:2) to prevent their becoming confluent. Cell counts were made manually in 20 fields chosen randomly, and the values at each time point, after allowing for changes due to subculturing, were aggregated (Table 3). […] Ten days later, cell counts were again made of 20 fields chosen at random. […] The results were as expected in view of the specific and non-specific expression of the positive and negative selection markers, in the TG/TK/neo^r and CD2/neo^r transgenics, respectively.
(§2) Drugs were added at day 2 in culture. Values are related to the number of cells found in control cultures without drug additions at various times after plating, and allow for dilutions resulting from passaging. Figures are the means of three separate determinations, the standard errors all being less than 15% of the mean.

[2] = system: thyroid cells derived from TG/TK/neo^r transgenic rats; experiment: Survival of thyroid cells from TG/TK/neo^r transgenic rats with drugs; type: cell-based, rat; settings: for Survival of thyroid cells (related to number of cells in control cultures without drug): TG/TK/neo^r rat cells, drugs added at day 2, geneticin 400 μg/ml, ACG 10 μg/ml
Description: as §1, §2

[3] = system: thyroid cells derived from control rats; experiment: Survival of thyroid cells from control rats with drugs; type: cell-based, rat; settings: for Survival of thyroid cells (related to number of cells in control cultures without drug): control rat cells, drugs added at day 2, geneticin 400 μg/ml, ACG 10 μg/ml
Description: as §1, §2

[4] = system: thyroid follicle cells; experiment: Ablation of thyroid follicle cells in vivo; parameters: species or system rat
[5] = system: lung fibroblast cells derived from TG/TK/neo^r transgenic rats; experiment: Survival of lung fibroblast cells from TG/TK/neo^r transgenic rats with drugs; type: cell-based, rat; settings: for Survival of lung fibroblast cells (related to number of cells in control cultures without drug): TG/TK/neo^r rat cells, drugs added at day 2, geneticin 400 μg/ml, 5FC 100 μg/ml
Description: (§3) Fibroblast cultures derived from lung of adult CD2/neo^r, TG/TK/neo^r and control animals were produced and expanded by routine methods (Freshney (1987), Alan R. Liss, New York). Twenty-four hours after plating, geneticin (400 μg/ml) was added to cultures originating from both types of transgenic rats and from control rats, and replaced every three days with fresh medium. When required, cells were subcultured (1:3) to prevent them becoming confluent, again by basic culture methods (Freshney 1987). Cell counts were made manually in 20 fields chosen randomly and the values at each time point, after allowing for changes due to subculturing, were aggregated. […] In the absence of added geneticin, no change in cell survival from either of the transgenic animals was observed.
(§4) The effects of 5-fluorocytosine (5FC) were also determined. 5-fluorocytosine at a concentration of 100 μg/ml had no effect on fibroblast cells derived from control animals or from the TG/TK/neo^r transgenic. In the cells derived from the CD2/neo^r transgenic animal, however, 94% of the originally-plated cells died, or were non-functional (as determined by their failure to exclude trypan blue) after 10 days culture in the presence of 5FC (Table 2).
(§5) Drugs were added at day 2 in culture. Values are related to the number of cells found in control cultures without drug additions at various times after plating, and allowing for dilutions resulting from passaging. Figures are the means of three separate determinations, the standard errors all being less than 15% of the mean.

[6] = system: lung fibroblast cells derived from CD2/neo^r transgenic rats; experiment: Survival of lung fibroblast cells from CD2/neo^r transgenic rats with drugs; type: cell-based, rat; settings: for Survival of lung fibroblast cells (related to number of cells in control cultures without drug): CD2/neo^r rat cells, drugs added at day 2, geneticin 400 μg/ml, 5FC 100 μg/ml
Description: as §3, §4, §5

[7] = system: lung fibroblast cells derived from control rats; experiment: Survival of lung fibroblast cells from control rats with drugs; type: cell-based, rat; settings: for Survival of lung fibroblast cells (related to number of cells in control cultures without drug): control rat cells, drugs added at day 2, geneticin 400 μg/ml, 5FC 100 μg/ml
Description: as §3, §4, §5

[8] = transgenic rats treated with ACG for 12 days

## Nc1nc2c(ncn2COCCO)c(=O)[nH]1 [ACG, acycloguanosine]
[1]; day 1 in culture
  Survival of thyroid cells (related to number of cells in control cultures without drug): 98
[1]; day 3 in culture
  Survival of thyroid cells (related to number of cells in control cultures without drug): 90
[1]; day 5 in culture
  Survival of thyroid cells (related to number of cells in control cultures without drug): 93
[1]; day 7 in culture
  Survival of thyroid cells (related to number of cells in control cultures without drug): 93
[1]; day 9 in culture
  Survival of thyroid cells (related to number of cells in control cultures without drug): 97
[1]; day 11 in culture
  Survival of thyroid cells (related to number of cells in control cultures without drug): 88
[2]; day 1 in culture
  Survival of thyroid cells (related to number of cells in control cultures without drug): 98
[2]; day 3 in culture
  Survival of thyroid cells (related to number of cells in control cultures without drug): 38
[2]; day 5 in culture
  Survival of thyroid cells (related to number of cells in control cultures without drug): 12
[2]; day 7 in culture
  Survival of thyroid cells (related to number of cells in control cultures without drug): 10
[2]; day 9 in culture
  Survival of thyroid cells (related to number of cells in control cultures without drug): 8
[2]; day 11 in culture
  Survival of thyroid cells (related to number of cells in control cultures without drug): 7
[2]; TG/TK/neo^r transgenic, 10 μg/ml ACG
  Survival of thyroid cells under ACG treatment: did not survive ACG treatment
[3]; control animals, 10 μg/ml ACG
  Survival of thyroid cells under ACG treatment: the cells derived from the control animals did
[3]; day 1 in culture
  Survival of thyroid cells (related to number of cells in control cultures without drug): 94
[3]; day 3 in culture
  Survival of thyroid cells (related to number of cells in control cultures without drug): 97
[3]; day 5 in culture
  Survival of thyroid cells (related to number of cells in control cultures without drug): 98
[3]; day 7 in culture
  Survival of thyroid cells (related to number of cells in control cultures without drug): 91
[3]; day 9 in culture
  Survival of thyroid cells (related to number of cells in control cultures without drug): 92
[3]; day 11 in culture
  Survival of thyroid cells (related to number of cells in control cultures without drug): 102
[4]; lower amounts of ACG per day
  Effect on T3 and T4: partial loss of T3 and T4
[4]; transgenic adult female rats, 50 mg ACG per day i.p. for 5 days, seven days after the final injection, N=6
  Serum level of T4: less than 2.5 nM
[4]; [8]
  Histochemical analysis of thyroid glands: almost complete loss of follicular cells
  Thyroid gland weight, of the original weights: 7%

## Nc1nc(=O)[nH]cc1F [5FC, 5-fluorocytosine]
[5]; day 1 in culture
  Survival of lung fibroblast cells (related to number of cells in control cultures without drug): 98
[5]; day 3 in culture
  Survival of lung fibroblast cells (related to number of cells in control cultures without drug): 96
[5]; day 5 in culture
  Survival of lung fibroblast cells (related to number of cells in control cultures without drug): 95
[5]; day 7 in culture
  Survival of lung fibroblast cells (related to number of cells in control cultures without drug): 92
[5]; day 9 in culture
  Survival of lung fibroblast cells (related to number of cells in control cultures without drug): 92
[5]; day 11 in culture
  Survival of lung fibroblast cells (related to number of cells in control cultures without drug): 93
[5]; TG/TK/neo^r transgenic, 100 μg/ml
  Effect of 5-fluorocytosine on fibroblast cells: had no effect
[6]; day 1 in culture
  Survival of lung fibroblast cells (related to number of cells in control cultures without drug): 94
[6]; day 3 in culture
  Survival of lung fibroblast cells (related to number of cells in control cultures without drug): 5
[6]; day 5 in culture
  Survival of lung fibroblast cells (related to number of cells in control cultures without drug): 3
[6]; day 7 in culture
  Survival of lung fibroblast cells (related to number of cells in control cultures without drug): 3
[6]; day 9 in culture
  Survival of lung fibroblast cells (related to number of cells in control cultures without drug): 4
[6]; day 11 in culture
  Survival of lung fibroblast cells (related to number of cells in control cultures without drug): 4
[6]; CD2/neo^r transgenic, 100 μg/ml, after 10 days culture in the presence of 5FC
  Originally-plated cells died, or were non-functional (failure to exclude trypan blue): 94%
[7]; control animals, 100 μg/ml
  Effect of 5-fluorocytosine on fibroblast cells: had no effect
[7]; day 1 in culture
  Survival of lung fibroblast cells (related to number of cells in control cultures without drug): 101
[7]; day 3 in culture
  Survival of lung fibroblast cells (related to number of cells in control cultures without drug): 105
[7]; day 5 in culture
  Survival of lung fibroblast cells (related to number of cells in control cultures without drug): 98
[7]; day 7 in culture
  Survival of lung fibroblast cells (related to number of cells in control cultures without drug): 97
[7]; day 9 in culture
  Survival of lung fibroblast cells (related to number of cells in control cultures without drug): 93
[7]; day 11 in culture
  Survival of lung fibroblast cells (related to number of cells in control cultures without drug): 96
[7]; control rats
  Difference in cell counts between cultures in the absence and presence of 5FC: no significant difference in cell counts
